Measurements published in ChEMBL document CHEMBL1201862, “PubChem BioAssay data set” (2004).
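Briefly, cells in 96-well plates were exposed to five compound concentrations for 48 h, and endpoints were estimated by linear interpolation. GI50 marks 50% less growth.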 Active and inactive are the calls of the source. Cut-off read from the data, not from the text of the source: active = GI50 up to about 1.1 µM and inactive = higher.

Key:
Assay in all cases: inhibition of tumour cell growth, NCI panel, 48 h
CAKI-1 = system: CAKI-1
SF-539 = system: SF-539
SR = system: SR
ACHN = system: ACHN
LOX IMVI = system: LOX IMVI
TK-10 = system: TK-10
HT-29 = system: HT-29
SF-268 = system: SF-268
UO-31 = system: UO-31
SF-295 = system: SF-295
SNB-19 = system: SNB-19
SK-OV-3 = system: SK-OV-3
SK-MEL-2 = system: SK-MEL-2
SK-MEL-5 = system: SK-MEL-5
OVCAR-5 = system: OVCAR-5
COLO 205 = system: COLO 205
NCI/ADR-RES = system: NCI/ADR-RES
MDA-MB-435 = system: MDA-MB-435
MCF7 = system: MCF7
T47D = system: T47D

Measured: GI50

Cc1cccc2c1c1ccc3c(c1n2C)C(=O)C=CC3=O
inactive: CAKI-1 3.2 µM | SF-539 4.56 µM | SR 1.43 µM | ACHN 7.73 µM | LOX IMVI 4.94 µM | TK-10 2.79 µM | HT-29 3.47 µM | SF-268 14 µM | UO-31 3.4 µM | SF-295 16.3 µM | SNB-19 16.7 µM | SK-OV-3 20.1 µM | SK-MEL-2 15.6 µM | SK-MEL-5 14.8 µM | OVCAR-5 15.9 µM | COLO 205 2.39 µM

NCCC(=O)N[C@H](Cc1cc(O)c(O)c(SCC(NC(=O)CC[C@H](N)C(=O)O)C(=O)NCC(=O)O)c1)C(=O)O (some centres undefined)
inactive: CAKI-1 > 50 µM | ACHN > 50 µM | TK-10 > 50 µM | HT-29 > 50 µM | SF-268 > 50 µM | UO-31 > 50 µM | SF-295 > 50 µM | SNB-19 > 50 µM | SK-OV-3 > 50 µM | NCI/ADR-RES > 50 µM | SK-MEL-2 > 50 µM | MDA-MB-435 > 50 µM | SK-MEL-5 > 50 µM | OVCAR-5 > 50 µM | COLO 205 > 50 µM | MCF7 > 50 µM

O=C1NC(=N/c2ccccc2)/C(=N\c2ccccc2)N1c1ccccc1
inactive: CAKI-1 16.3 µM | SF-539 17.4 µM | SR 20 µM | ACHN 16.9 µM | LOX IMVI 16.3 µM | TK-10 16.9 µM | T47D 15.1 µM | HT-29 16 µM | SF-268 17.9 µM | UO-31 16.5 µM | SF-295 15.8 µM | SNB-19 17 µM | SK-OV-3 17.6 µM | NCI/ADR-RES 15.5 µM | SK-MEL-2 15.1 µM | MDA-MB-435 14.2 µM | SK-MEL-5 15.9 µM | OVCAR-5 18 µM | COLO 205 14.8 µM

COc1ccccc1OCC(=N/NC(=O)c1ccncc1)/N=C/c1cccnc1
inactive: CAKI-1 > 100 µM | SF-539 > 100 µM | ACHN > 100 µM | LOX IMVI > 100 µM | TK-10 > 100 µM | T47D > 100 µM | HT-29 > 100 µM | SF-268 > 100 µM | SF-295 > 100 µM | SNB-19 > 100 µM | SK-OV-3 > 100 µM | NCI/ADR-RES > 100 µM | SK-MEL-2 > 100 µM | MDA-MB-435 > 100 µM | OVCAR-5 > 100 µM | COLO 205 > 100 µM | MCF7 > 100 µM

COc1ccccc1Cn1c2c(c3cc(O)ccc31)C(=O)c1ccccc1C2=O
inactive: CAKI-1 16.7 µM | SF-539 12.7 µM | SR 52.8 µM | LOX IMVI 12.4 µM | TK-10 72.8 µM | HT-29 > 100 µM | SF-268 19.7 µM | UO-31 48 µM | SF-295 11.2 µM | SNB-19 27.1 µM | SK-OV-3 2.42 µM | NCI/ADR-RES 11.3 µM | SK-MEL-2 38.6 µM | MDA-MB-435 84.3 µM | SK-MEL-5 37.2 µM | OVCAR-5 10.4 µM | COLO 205 61.9 µM | MCF7 10.1 µM

C=C(c1ccccc1)[C@@]1(O)CCCC[C@H]1NC(c1ccccc1)c1ccccc1
inactive: CAKI-1 7.67 µM | SF-539 15.9 µM | SR 1.7 µM | ACHN 11.7 µM | LOX IMVI 9.84 µM | TK-10 16.3 µM | HT-29 11.7 µM | SF-268 13.6 µM | UO-31 14.5 µM | SF-295 12.1 µM | SNB-19 15.7 µM | SK-OV-3 19.1 µM | SK-MEL-2 13.3 µM | SK-MEL-5 9.51 µM | OVCAR-5 13.6 µM | COLO 205 14.2 µM

CC(=O)CCC1(C(=O)OCC(C)C)CCCC1=O (centres undefined)
inactive: CAKI-1 > 100 µM | SF-539 > 100 µM | ACHN > 100 µM | LOX IMVI > 100 µM | TK-10 > 100 µM | T47D > 100 µM | HT-29 > 100 µM | SF-268 > 100 µM | UO-31 > 100 µM | SF-295 > 100 µM | SNB-19 > 100 µM | SK-OV-3 > 100 µM | NCI/ADR-RES > 100 µM | SK-MEL-2 > 100 µM | MDA-MB-435 > 100 µM | SK-MEL-5 > 100 µM | OVCAR-5 > 100 µM | COLO 205 > 100 µM

CSC(SC)=C1C(=O)NN=C1C
inactive: CAKI-1 89.3 µM | SF-539 > 100 µM | SR > 100 µM | ACHN > 100 µM | LOX IMVI > 100 µM | TK-10 > 100 µM | T47D > 100 µM | HT-29 > 100 µM | SF-268 > 100 µM | UO-31 > 100 µM | SF-295 > 100 µM | SNB-19 > 100 µM | SK-OV-3 > 100 µM | SK-MEL-2 > 100 µM | MDA-MB-435 > 100 µM | SK-MEL-5 > 100 µM | OVCAR-5 > 100 µM | COLO 205 > 100 µM | MCF7 > 100 µM
